Results on ten compounds are retold here after patent US20240316022A1 (TYRA BIOSCIENCES, INC., priority 2021, published 2024).

Where only a bound is given, the exact number is not on record here.

Holding throughout (assay): Kinase binding assay (kinase-tagged T7 phage, qPCR), Kd
(In general: Quantitative PCR measures a nucleic acid by following its amplification.)

One assay addresses T1, FGFR1 (Homo sapiens, UniProt P11362).
T1 construct: made in house; host or cells: E. coli derived from BL21, infected with T7 phage
Conditions: read-out: FGFR1 (Kd nM).

For the next assay, the target named is T2, FGFR2 (Homo sapiens, UniProt P21802).
T2 construct: made in house; host or cells: E. coli derived from BL21, infected with T7 phage
T2 sequence (P21802 22-821): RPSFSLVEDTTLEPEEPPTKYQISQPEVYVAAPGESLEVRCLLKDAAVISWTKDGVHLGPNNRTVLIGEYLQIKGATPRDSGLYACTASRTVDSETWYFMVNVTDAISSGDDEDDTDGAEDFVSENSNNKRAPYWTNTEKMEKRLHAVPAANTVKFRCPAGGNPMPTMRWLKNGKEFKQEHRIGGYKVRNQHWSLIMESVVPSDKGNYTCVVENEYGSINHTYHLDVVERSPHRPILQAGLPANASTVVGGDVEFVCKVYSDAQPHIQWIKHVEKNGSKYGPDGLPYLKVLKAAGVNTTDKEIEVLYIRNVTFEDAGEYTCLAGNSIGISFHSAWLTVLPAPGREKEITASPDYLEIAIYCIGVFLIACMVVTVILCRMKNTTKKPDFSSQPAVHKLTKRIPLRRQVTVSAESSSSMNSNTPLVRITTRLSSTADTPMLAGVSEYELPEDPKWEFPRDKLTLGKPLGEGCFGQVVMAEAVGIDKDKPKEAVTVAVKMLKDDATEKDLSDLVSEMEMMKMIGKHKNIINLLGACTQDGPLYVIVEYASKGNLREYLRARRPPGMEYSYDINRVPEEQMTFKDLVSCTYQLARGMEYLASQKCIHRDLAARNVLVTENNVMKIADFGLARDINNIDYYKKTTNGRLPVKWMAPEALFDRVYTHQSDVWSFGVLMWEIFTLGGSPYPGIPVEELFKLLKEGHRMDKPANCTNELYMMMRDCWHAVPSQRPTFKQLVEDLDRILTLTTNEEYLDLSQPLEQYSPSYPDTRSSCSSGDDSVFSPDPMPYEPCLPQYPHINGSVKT
Particulars: read-out: FGFR2 (Kd nM).

The target in another assay is T3, FGFR3 (Homo sapiens, UniProt P22607).
T3 construct: made in house; host or cells: E. coli derived from BL21, infected with T7 phage
T3 sequence (P22607 23-806): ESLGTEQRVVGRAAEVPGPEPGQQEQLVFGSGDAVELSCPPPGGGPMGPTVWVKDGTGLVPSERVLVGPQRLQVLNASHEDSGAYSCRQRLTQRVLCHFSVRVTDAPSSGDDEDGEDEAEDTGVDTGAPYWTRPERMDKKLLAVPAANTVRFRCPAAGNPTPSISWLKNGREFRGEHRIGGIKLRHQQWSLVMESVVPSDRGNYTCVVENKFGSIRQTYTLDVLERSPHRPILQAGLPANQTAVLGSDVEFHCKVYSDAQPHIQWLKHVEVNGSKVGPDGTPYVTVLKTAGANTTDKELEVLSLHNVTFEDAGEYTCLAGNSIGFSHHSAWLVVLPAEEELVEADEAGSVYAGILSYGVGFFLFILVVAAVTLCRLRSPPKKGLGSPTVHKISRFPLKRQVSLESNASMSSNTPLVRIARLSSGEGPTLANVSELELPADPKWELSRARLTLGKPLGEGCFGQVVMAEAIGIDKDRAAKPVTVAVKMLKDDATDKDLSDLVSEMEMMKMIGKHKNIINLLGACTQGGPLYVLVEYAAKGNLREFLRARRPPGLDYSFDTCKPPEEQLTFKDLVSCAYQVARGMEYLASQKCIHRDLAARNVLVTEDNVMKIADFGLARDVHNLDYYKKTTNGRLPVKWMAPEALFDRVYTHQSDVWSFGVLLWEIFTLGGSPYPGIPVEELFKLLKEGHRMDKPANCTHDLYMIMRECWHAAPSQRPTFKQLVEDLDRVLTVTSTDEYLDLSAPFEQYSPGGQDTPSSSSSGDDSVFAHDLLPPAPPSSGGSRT
Particulars: read-out: FGFR3 (Kd nM).

The target of another assay is T4, FGFR4 (Homo sapiens, UniProt P22455).
T4 construct: made in house; host or cells: E. coli derived from BL21, infected with T7 phage
T4 sequence (P22455 22-802): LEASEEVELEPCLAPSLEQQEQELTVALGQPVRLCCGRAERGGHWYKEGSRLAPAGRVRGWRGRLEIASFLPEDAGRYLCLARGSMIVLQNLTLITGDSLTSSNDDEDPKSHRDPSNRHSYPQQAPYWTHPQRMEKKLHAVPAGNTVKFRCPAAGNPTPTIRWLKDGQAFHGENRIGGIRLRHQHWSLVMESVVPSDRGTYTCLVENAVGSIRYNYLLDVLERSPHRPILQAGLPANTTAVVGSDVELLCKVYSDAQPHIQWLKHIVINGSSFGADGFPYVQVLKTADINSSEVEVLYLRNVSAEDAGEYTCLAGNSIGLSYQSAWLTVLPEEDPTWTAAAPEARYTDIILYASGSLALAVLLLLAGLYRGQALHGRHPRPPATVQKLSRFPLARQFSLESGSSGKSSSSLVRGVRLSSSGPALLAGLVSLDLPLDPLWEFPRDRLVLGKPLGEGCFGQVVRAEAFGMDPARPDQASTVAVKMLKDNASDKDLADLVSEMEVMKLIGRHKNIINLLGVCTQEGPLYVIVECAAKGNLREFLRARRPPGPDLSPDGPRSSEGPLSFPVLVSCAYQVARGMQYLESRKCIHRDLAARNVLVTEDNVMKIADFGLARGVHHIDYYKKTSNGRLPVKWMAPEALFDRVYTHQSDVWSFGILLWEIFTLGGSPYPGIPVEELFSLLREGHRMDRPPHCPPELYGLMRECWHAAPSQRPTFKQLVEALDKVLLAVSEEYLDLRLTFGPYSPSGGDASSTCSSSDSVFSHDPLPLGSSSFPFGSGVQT
Conditions: read-out: FGFR4 (Kd nM).

T1 sequence (P11362 22-822): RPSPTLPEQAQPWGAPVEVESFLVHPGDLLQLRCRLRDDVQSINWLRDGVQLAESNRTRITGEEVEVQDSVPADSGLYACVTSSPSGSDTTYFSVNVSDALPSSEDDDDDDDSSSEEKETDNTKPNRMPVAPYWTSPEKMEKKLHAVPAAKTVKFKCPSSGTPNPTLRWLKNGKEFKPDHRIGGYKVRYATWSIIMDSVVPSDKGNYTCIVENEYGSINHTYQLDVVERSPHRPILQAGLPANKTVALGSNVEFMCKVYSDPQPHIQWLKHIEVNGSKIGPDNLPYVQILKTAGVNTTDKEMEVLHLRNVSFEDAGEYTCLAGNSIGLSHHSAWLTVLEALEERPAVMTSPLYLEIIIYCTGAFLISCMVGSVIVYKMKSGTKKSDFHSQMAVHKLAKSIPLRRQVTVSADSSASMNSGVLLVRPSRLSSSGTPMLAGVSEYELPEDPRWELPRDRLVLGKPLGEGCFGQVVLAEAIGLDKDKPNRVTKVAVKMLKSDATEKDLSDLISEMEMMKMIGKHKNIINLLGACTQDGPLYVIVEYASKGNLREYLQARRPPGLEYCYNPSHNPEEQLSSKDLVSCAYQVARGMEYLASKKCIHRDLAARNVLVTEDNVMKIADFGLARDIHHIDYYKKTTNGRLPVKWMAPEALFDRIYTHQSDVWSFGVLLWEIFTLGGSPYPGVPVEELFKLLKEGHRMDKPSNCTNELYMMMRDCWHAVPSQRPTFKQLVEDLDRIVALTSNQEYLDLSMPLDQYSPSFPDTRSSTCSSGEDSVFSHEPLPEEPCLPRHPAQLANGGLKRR

The term Kd denotes the equilibrium constant for the complex coming apart. Take `COc1cc(C#N)cc(-c2n[nH]c3ccc(O[C@@H](C)c4c(C)cnnc4C)cc23)c1` [Example 55, 3-[5-[(1S)-1-(3,5-dimethylpyridazin-4-yl)ethoxy]-1H-indazol-3-yl]-5-methoxy-benzonitrile]: the Kd at FGFR1 was greater than 1000 nM; on FGFR2, greater than 1000 nM; on FGFR3, greater than 1000 nM; at FGFR4 it was 250 to 1000 nM.

For the compound `C[C@@H](Oc1ccc2[nH]nc(-c3ccc(NC(=O)N(C)C)nc3)c2c1)c1c(Cl)cncc1Cl` [Example 14, 3-[5-[5-[(1R)-1-(3,5-dichloro-4-pyridyl)ethoxy]-1H-indazol-3-yl]-2-pyridyl]-1,1-dimethyl-urea], the Kd on FGFR1, on FGFR2, on FGFR3 and at FGFR4 was 0.1 to 100 nM in each case.

Regarding `Cc1cnnc(C)c1[C@@H](C)Oc1ccc2[nH]nc(-c3cc(C#N)cc(C4CC4)c3)c2c1` [Example 84, 3-cyclopropyl-5-[5-[(1R)-1-(3,5-dimethyl-pyridazin-4-yl)ethoxy]-1H-indazol-3-yl]benzonitrile], the Kd lay within 250 to 1000 nM at FGFR1, 250 to 1000 nM at FGFR2, 0.1 to 100 nM on FGFR3 and 0.1 to 100 nM at FGFR4.

For `C[C@@H](Oc1ccc2[nH]nc(-c3ccnc(N)c3)c2c1)c1c(Cl)cncc1Cl` [Example 29, 4-[5-[(1R)-1-(3,5-dichloro-4-pyridyl)ethoxy]-1H-indazol-3-yl]pyridin-2-amine], the Kd at FGFR1, on FGFR2, at FGFR3 and on FGFR4 was 0.1 to 100 nM throughout.

For the compound `COc1cc(OCC2CC2)cc(-c2n[nH]c3ccc(O[C@H](C)c4c(C)cnnc4C)cc23)c1` [Example 68, 3-[3-(cyclopropyl-methoxy)-5-methoxy-phenyl]-5-[(1R)-1-(3,5-dimethylpyridazin-4-yl)ethoxy]-1H-indazole], the Kd at FGFR1 is greater than 1000 nM; at FGFR2 it was greater than 1000 nM; on FGFR3 it was greater than 1000 nM; on FGFR4, 0.1 to 100 nM.

With `C[C@@H](Oc1ccc2[nH]nc(-c3cnc(N)c(OC(F)(F)F)c3)c2c1)c1c(Cl)cncc1Cl` [Example 32, 5-[5-[(1R)-1-(3,5-dichloro-4-pyridyl)ethoxy]-1H-indazol-3-yl]-3-(trifluoro-methoxy)pyridin-2-amine], the Kd at FGFR1 is greater than 1000 nM; at FGFR2, greater than 1000 nM; at FGFR3, greater than 1000 nM; at FGFR4, 0.1 to 100 nM.

Regarding `C[C@@H](Oc1ccc2[nH]nc(-c3ccc(C(N)=O)nc3)c2c1)c1c(Cl)cncc1Cl` [Example 12, 5-[5-[(1R)-1-(3,5-dichloro-4-pyridyl)ethoxy]-1H-indazol-3-yl]pyridine-2-carboxamide], the Kd on FGFR1, at FGFR2, at FGFR3 and at FGFR4 was 0.1 to 100 nM throughout.

As for `C[C@@H](Oc1ccc2[nH]nc(-c3cnc(O[C@@H]4CCOC4)c(C#N)c3)c2c1)c1c(Cl)cncc1Cl` [Example 134, 5-(5-((R)-1-(3,5-dichloropyridin-4-yl)ethoxy)-1H-indazol-3-yl)-2-(((R)-tetrahydrofuran-3-yl)oxy)nicotinonitrile], the dissociation constant (Kd) on FGFR1 was in the range of 100 to 250 nM; at FGFR2, 0.1 to 100 nM; at FGFR3 it was 0.1 to 100 nM; on FGFR4, 0.1 to 100 nM.

For `C[C@@H](Oc1ccc2[nH]nc(-c3cnc4c(c3)N(C(=O)N3CCOCC3)CCO4)c2c1)c1c(Cl)cncc1Cl` [Example 18, [7-[5-[(1R)-1-(3,5-dichloro-4-pyridyl)ethoxy]-1H-indazol-3-yl]-2,3-dihydropyrido[2,3-b][1,4]oxazin-1-yl]-morpholino-methanone], the Kd was 250 to 1000 nM on FGFR1, 250 to 1000 nM on FGFR2, 100 to 250 nM at FGFR3 and 0.1 to 100 nM on FGFR4.

As for `COc1cc(-c2n[nH]c3ccc(O[C@H](C)c4c(C)cnnc4C)cc23)cc(C#N)n1` [Example 100, (R)-4-(5-(1-(3,5-dimethylpyridazin-4-yl)ethoxy)-1H-indazol-3-yl)-6-methoxypicolinonitrile], the Kd at FGFR1 fell in the range of 250 to 1000 nM; on FGFR2, 250 to 1000 nM; on FGFR3, 100 to 250 nM; at FGFR4, 0.1 to 100 nM.
